Literature values as cited in patent US20180168955A1, “IODINE-CONTAINING ORAL CARE COMPOSITIONS” (priority 2016, published 2018).

II [iodine]
volume of alcohol in which one gram of iodine dissolves (solvent alcohol): 12.5 mL
volume of water in which one gram of iodine dissolves (solvent water): 2950 mL
